US20230073777A1, “CYCLIC-AMP RESPONSE ELEMENT BINDING PROTEIN (CBP) AND/OR ADENOVIRAL E1A BINDING PROTEIN OF 300 KDA (P300) DEGRADATION COMPOUNDS AND METHODS OF USE” (CULLGEN (SHANGHAI), INC., priority 2019, published 2023)
Read-outs that look alike come from different tables or passages of the source.

Assays:
P300 = P300 (Homo sapiens, UniProt Q09472); experiment: Immunoblotting of P300 protein levels in LNCaP or 22RV1 cells; type: cell-based; design: LNCaP or 22RV1 cells that express CBP/P300 proteins were treated with GNE-781 or the bivalent compounds; endogenous in cells; host or cells: LNCaP (clone FGC) or 22RV1 cells; settings: read-out: Degradation (10 nM)
P300, sequence (Q09472 whole entry): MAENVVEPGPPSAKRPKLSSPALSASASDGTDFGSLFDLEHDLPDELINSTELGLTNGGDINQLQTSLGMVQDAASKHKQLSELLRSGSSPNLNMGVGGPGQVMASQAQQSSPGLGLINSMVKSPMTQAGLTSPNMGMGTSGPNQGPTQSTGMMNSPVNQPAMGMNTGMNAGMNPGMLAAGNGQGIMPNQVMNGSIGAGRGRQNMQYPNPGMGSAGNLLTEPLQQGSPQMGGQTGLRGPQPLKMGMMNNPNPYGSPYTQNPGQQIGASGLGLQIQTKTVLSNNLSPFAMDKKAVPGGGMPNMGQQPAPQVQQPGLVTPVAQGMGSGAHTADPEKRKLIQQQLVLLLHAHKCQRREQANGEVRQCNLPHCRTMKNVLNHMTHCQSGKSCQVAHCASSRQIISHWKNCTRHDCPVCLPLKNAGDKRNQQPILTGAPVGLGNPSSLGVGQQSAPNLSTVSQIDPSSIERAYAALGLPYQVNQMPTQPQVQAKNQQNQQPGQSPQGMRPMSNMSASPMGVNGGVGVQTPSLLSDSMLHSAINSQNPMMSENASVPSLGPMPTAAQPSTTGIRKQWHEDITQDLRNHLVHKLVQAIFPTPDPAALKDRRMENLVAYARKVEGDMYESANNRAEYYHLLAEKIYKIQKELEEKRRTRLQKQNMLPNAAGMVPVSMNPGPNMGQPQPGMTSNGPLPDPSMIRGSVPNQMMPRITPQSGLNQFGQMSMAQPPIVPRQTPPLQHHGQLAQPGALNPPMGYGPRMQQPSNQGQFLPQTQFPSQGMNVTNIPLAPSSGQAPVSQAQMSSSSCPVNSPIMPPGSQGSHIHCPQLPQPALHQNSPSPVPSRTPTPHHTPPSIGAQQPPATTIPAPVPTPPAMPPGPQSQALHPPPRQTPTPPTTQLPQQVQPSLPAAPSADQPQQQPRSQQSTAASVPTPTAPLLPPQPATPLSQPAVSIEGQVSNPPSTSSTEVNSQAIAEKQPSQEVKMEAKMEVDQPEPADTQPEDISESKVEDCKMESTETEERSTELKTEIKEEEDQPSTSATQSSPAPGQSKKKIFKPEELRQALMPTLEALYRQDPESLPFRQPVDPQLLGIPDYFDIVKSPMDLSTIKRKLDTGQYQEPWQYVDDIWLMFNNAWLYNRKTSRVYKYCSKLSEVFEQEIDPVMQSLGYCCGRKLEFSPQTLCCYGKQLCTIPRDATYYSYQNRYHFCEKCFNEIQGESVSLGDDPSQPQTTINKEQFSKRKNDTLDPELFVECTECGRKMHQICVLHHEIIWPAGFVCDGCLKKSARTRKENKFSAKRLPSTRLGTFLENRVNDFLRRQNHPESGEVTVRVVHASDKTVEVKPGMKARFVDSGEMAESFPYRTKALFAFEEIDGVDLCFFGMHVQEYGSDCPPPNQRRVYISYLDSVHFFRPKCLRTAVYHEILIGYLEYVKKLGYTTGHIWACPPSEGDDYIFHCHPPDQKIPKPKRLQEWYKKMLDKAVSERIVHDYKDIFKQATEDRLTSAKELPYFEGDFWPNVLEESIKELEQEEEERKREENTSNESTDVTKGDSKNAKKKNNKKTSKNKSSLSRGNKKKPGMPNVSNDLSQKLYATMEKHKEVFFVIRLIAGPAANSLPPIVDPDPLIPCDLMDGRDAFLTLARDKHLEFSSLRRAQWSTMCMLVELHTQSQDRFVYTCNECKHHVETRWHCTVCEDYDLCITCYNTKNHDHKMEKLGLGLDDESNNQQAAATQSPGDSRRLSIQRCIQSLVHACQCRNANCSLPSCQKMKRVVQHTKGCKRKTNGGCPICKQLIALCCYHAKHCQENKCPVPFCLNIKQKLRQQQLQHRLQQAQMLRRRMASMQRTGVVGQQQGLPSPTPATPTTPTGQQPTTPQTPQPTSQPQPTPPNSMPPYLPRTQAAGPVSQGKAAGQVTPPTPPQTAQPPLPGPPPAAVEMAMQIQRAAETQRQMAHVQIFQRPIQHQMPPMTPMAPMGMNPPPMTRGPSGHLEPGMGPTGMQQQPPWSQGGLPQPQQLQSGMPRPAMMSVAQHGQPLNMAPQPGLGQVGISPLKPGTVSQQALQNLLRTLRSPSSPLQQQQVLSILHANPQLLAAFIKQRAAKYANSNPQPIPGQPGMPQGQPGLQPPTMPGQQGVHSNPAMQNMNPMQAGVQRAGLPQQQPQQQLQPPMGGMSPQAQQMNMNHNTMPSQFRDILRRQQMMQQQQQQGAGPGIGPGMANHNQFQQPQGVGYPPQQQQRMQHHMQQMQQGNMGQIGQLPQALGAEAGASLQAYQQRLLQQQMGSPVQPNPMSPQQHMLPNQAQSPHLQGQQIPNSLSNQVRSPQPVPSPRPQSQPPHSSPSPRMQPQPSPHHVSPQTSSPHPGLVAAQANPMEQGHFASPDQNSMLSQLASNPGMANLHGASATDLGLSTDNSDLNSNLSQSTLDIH
Outline: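 LNCaP or 22RV1 cells treated with compounds for indicated hours, DMSO as negative control. RIPA lysates resolved by SDS-PAGE and immunoblotted for P300 or CBP, tubulin or vinculin as loading control; chemiluminescent bands quantitated.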

LNCaP cells = experiment: LNCaP cell viability assay (CellTiter-Glo); type: cell-based; settings: Homo sapiens, 72 h; LNCaP prostate cancer cell viability inhibition, 3 days, CellTiter-Glo (Table 3)
Outline: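 LNCaP cells, 5000/well, exposed to compounds in 12-point 3-fold serial dilution (top 10 μM) for 3 days. Viability by CellTiter-Glo luminescence, normalized to untreated cells; IC50 by least-squares nonlinear regression.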

[1] = percentage of inhibition of p300 at 10 nM (Table 3)

SMILES	IC50 (LNCaP cells) [nM]	inhibition at 0.01 µM (P300; [1]) [%]	inhibition at 0.01 µM (P300) [%]
CC(=O)N1CCc2c(c(N3CCCc4cc(-c5cnn(C)c5)c(C(F)F)cc43)nn2C2CCN(C(=O)CCCCCn3c(=O)n(C4CCC(=O)NC4=O)c4ccccc43)CC2)C1 (stereo not drawn) [P-107, 3-(3-(6-(4-(5-Acetyl-3-(7-(difluoromethyl)-6-(1-methyl-1H-pyrazol-4-yl)-3,4-dihydroquinolin-1(2H)-yl)-4,5,6,7-tetrahydro-1H-pyrazolo[4,3-c]pyridin-1-yl)piperidin-1-yl)-6-oxohexyl)-2-oxo-2,3-dihydro-1H-benzo[d]imidazol-1-yl)piperidine-2,6-dione]	20.4	–	50 to 80
CNC(=O)N1CCc2c(c(N3CCCc4cc(-c5cnn(C)c5)c(C(F)F)cc43)nn2C2CCN(C(=O)CCCCCNc3cccc4c3n(C)c(=O)n4C3CCC(=O)NC3=O)CC2)C1 (stereo not drawn) [P-109, 3-(7-(difluoromethyl)-6-(1-methyl-1H-pyrazol-4-yl)-3,4-dihydroquinolin-1(2H)-yl)-1-(1-(6-((1-(2,6-dioxopiperidin-3-yl)-3-methyl-2-oxo-2,3-dihydro-1H-benzo[d]imidazol-4-yl)amino)hexanoyl)piperidin-4-yl)-N-methyl-1,4,6,7-tetrahydro-5H-pyrazolo[4,3-c]pyridine-5-carboxamide]	12.9	> 80	–
CC(=O)N1CCc2c(c(N3CCCc4cc(-c5cnn(C)c5)c(C(F)F)cc43)nn2C2CCN(C(=O)CCCCCNc3cccc4c3n(C)c(=O)n4C3CCC(=O)NC3=O)CC2)C1 (stereo not drawn) [P-110, 3-(4-((6-(4-(5-acetyl-3-(7-(difluoromethyl)-6-(1-methyl-1H-pyrazol-4-yl)-3,4-dihydroquinolin-1(2H)-yl)-4,5,6,7-tetrahydro-1H-pyrazolo[4,3-c]pyridin-1-yl)piperidin-1-yl)-6-oxohexyl)amino)-3-methyl-2-oxo-2,3-dihydro-1H-benzo[d]imidazol-1-yl)piperidine-2,6-dione]	31.1	> 80	–

The next lines start with results.

IC50 (LNCaP cells) [nM]	inhibition at 0.01 µM (P300; [1]) [%]	SMILES	inhibition at 0.01 µM (P300) [%]
16.5	50 to 80	CC(=O)N1CCc2c(c(N3CCCc4cc(-c5cnn(C)c5)c(C(F)F)cc43)nn2C2CCN(C(=O)CCCCCCn3c(=O)n(C4CCC(=O)NC4=O)c4ccccc43)CC2)C1 (stereo not drawn) [P-108, 3-(3-(7-(4-(5-Acetyl-3-(7-(difluoromethyl)-6-(1-methyl-1H-pyrazol-4-yl)-3,4-dihydroquinolin-1(2H)-yl)-4,5,6,7-tetrahydro-1H-pyrazolo[4,3-c]pyridin-1-yl)piperidin-1-yl)-7-oxoheptyl)-2-oxo-2,3-dihydro-1H-benzo[d]imidazol-1-yl)piperidine-2,6-dione]	–
7.6	> 80	CC(=O)N1CCc2c(c(N3CCCc4cc(-c5cnn(C)c5)c(C(F)F)cc43)nn2C2CCN(C(=O)CCCCCCNc3cccc4c3n(C)c(=O)n4C3CCC(=O)NC3=O)CC2)C1 (stereo not drawn) [P-111, 3-(4-((7-(4-(5-acetyl-3-(7-(difluoromethyl)-6-(1-methyl-1H-pyrazol-4-yl)-3,4-dihydroquinolin-1(2H)-yl)-4,5,6,7-tetrahydro-1H-pyrazolo[4,3-c]pyridin-1-yl)piperidin-1-yl)-7-oxoheptyl)amino)-3-methyl-2-oxo-2,3-dihydro-1H-benzo[d]imidazol-1-yl)piperidine-2,6-dione]	–
2.1	> 80	CC(=O)N1CCc2c(c(N3CCCc4cc(-c5cnn(C)c5)c(C(F)F)cc43)nn2C2CCN(CCCCCCNc3cccc4c3C(=O)N(C3CCC(=O)NC3=O)C4=O)CC2)C1 (stereo not drawn) [P-112, 4-((6-(4-(5-acetyl-3-(7-(difluoromethyl)-6-(1-methyl-1H-pyrazol-4-yl)-3,4-dihydroquinolin-1(2H)-yl)-4,5,6,7-tetrahydro-1H-pyrazolo[4,3-c]pyridin-1-yl)piperidin-1-yl)hexyl)amino)-2-(2,6-dioxopiperidin-3-yl)isoindoline-1,3-dione]	–
